{"source": "patent US12435101B2", "about": "“Isochroman compound” (Zhejiang Yangli Pharmaceutical Technology Co., Ltd., priority 2020, dated 2025)", "system": "NCI-H460 cells", "experiment": "Antiproliferative activity on NCI-H460 cell line (CellTiter-Glo)", "format": "cell-based", "settings": "Homo sapiens; NCI-H460 (lung cancer, high AKR1C3); 2 hours with drug, then 70 hours drug-free", "experimental": "RPMI-1640 medium and penicillin/streptomycin antibiotics were purchased from Vicente, and fetal bovine serum was purchased from Biosera. CellTiter-Glo (Cell Viability Chemiluminescence Detection Reagent) reagent was purchased from Promega. The NCI-H460 cell line was purchased from Nanjing Kebai Biotechnology Co., Ltd. Nivo Multimode Plate Reader (PerkinElmer).\nNCI-H460 cells (lung cancer) were seeded in a 96-well plate, 80 μL of cell suspension per well, which contained 4000 NCI-H460 cells. The cell plate was incubated overnight in a carbon dioxide incubator. The compound to be tested was diluted 5-fold to the ninth concentration with a multi-channel pipette, that is, the compound to be tested was diluted from 2 mM to 5.2 nM, and an experiment for the sample assayed in duplicate was set up. 78 μL of medium was added to the middle plate, and 2 μL of the gradient-diluted compound per well was transferred to the middle plate according to the corresponding position, then 20 μL per well was transferred to the cell plate after mixing. […] Another cell plate was prepared, and the signal value was read as the maximum value (Max value in the following equation) on the day of drug addition to participate in data analysis. […] The multimode plate reader was used for readings. […]. […]", "data": [{"molecule": "O=[N+]([O-])c1cc2c(cc1Oc1ccccc1F)C(OP(=O)(N1CC1)N1CC1)COC2", "note": "(centres unmarked) [Compound 2]", "values": [{"measurement": "IC50", "value": 21.6, "unit": "nM"}]}, {"molecule": "O=[N+]([O-])c1cc2c(cc1Oc1cccnc1F)C(OP(=O)(N1CC1)N1CC1)COC2", "note": "(centres unmarked) [Compound 1]", "values": [{"measurement": "IC50", "value": 3.8, "unit": "nM"}]}]}
